Results on one compound are retold here after ChEMBL document CHEMBL6177967, “Semisynthesis and biological evaluation of 17-hydroxybrevianamide N derivatives as anti-inflammatory agents by mediating NF-κB and MAPK signaling pathways” (Eur J Med Chem, 2025).

Series [1] concerns RAW264.7. Kind of series: Inhibition of NFkappaB pathway activation in LPS-induced mouse RAW264.7 cells assessed as reduction in phosphorylated IKBalpha level at 10 uM incubated for 24 hrs by Western blot analysis relative to control. Type of series: cell-based.
The nature of series [2]: Downregulation of MAPK protein expression in LPS-induced mouse RAW264.7 cells at 0.2 uM incubated for 24 hrs by Western blot analysis relative to control. It is filed as functional.
Series [3] deals with RAW264.7. Kind of series: Cytotoxicity against mouse RAW264.7 cells assessed as inhibition of cell growth at 2 uM incubated for 24 hrs by MTT assay. It is filed as toxicity, cell-based. The following applies: raw264.7, 24 h.
Series [4] has as its system RAW264.7. Nature of the series: Inhibition of MAPK signaling pathway in LPS-induced mouse RAW264.7 cells assessed as reduction in SAPK/JNK phosphorylation at 0.2 uM incubated for 24 hrs by Western blot analysis. Type of series: cell-based.
Series [5] has as its system RAW264.7. Nature of the series: Inhibition of MAPK signaling pathway in LPS-induced mouse RAW264.7 cells assessed as reduction in p38 phosphorylation at 0.2 uM incubated for 24 hrs by Western blot analysis. It is filed as cell-based.
Series [6] relates to RAW264.7. Kind of series: Anti-inflammatory activity in LPS-induced mouse RAW264.7 cells assessed as inhibition of IL-1beta level at 2 uM incubated for 24 hrs by ELISA relative to control. Type of series: functional.
In series [7] the test system is RAW264.7. Nature of the series: Inhibition of NFkappaB pathway activation in LPS-induced mouse RAW264.7 cells assessed as inhibition of p65 phosphorylation at 0.2 uM incubated for 24 hrs by Western blot analysis. It is filed as cell-based.
The subject of series [8] is RAW264.7. Nature of the series: Inhibition of MAPK signaling pathway in LPS-induced mouse RAW264.7 cells assessed as reduction in phosphorylated SAPK/JNK level at 10 uM incubated for 24 hrs by Western blot analysis. Type of series: cell-based.
Series [9] has as its system RAW264.7. Nature of the series: Anti-inflammatory activity in LPS-induced mouse RAW264.7 cells assessed as inhibition of NO levels incubated for 24 hrs. The following applies: RAW264.7, 24 h. Type of series: functional, cell-based.
Series [10] deals with RAW264.7. Nature of the series: Inhibition of NFkappaB pathway activation in LPS-induced mouse RAW264.7 cells assessed as reduction in phosphorylated p65 level at 0.2 to 10 uM incubated for 24 hrs by Western blot analysis relative to control. The following applies: dose 0.2-10 µM. It is filed as cell-based.
Series [11] deals with RAW264.7. Kind of series: Anti-inflammatory activity in LPS-induced mouse RAW264.7 cells assessed as inhibition of IL-6 level at 2 uM incubated for 24 hrs by ELISA relative to control. It is filed as functional.
Series [12] concerns RAW264.7. Kind of series: Anti-inflammatory activity in LPS-induced mouse RAW264.7 cells assessed as inhibition of TNF-alpha level at 2 uM incubated for 24 hrs by ELISA relative to control. It is filed as functional.
The subject of series [13] is RAW264.7. Kind of series: Inhibition of MAPK signaling pathway in LPS-induced mouse RAW264.7 cells assessed as reduction in phosphorylated p38 level at 10 uM incubated for 24 hrs by Western blot analysis. Type of series: cell-based.
Series [14] relates to RAW264.7. Nature of the series: Inhibition of NFkappaB pathway activation in LPS-induced mouse RAW264.7 cells assessed as inhibition of IKBalpha phosphorylation at 10 uM incubated for 24 hrs by Western blot analysis. It is filed as cell-based.
The subject of series [15] is RAW264.7. Nature of the series: Inhibition of MAPK signaling pathway in LPS-induced mouse RAW264.7 cells assessed as reduction in ERK phosphorylation at 0.2 uM incubated for 24 hrs by Western blot analysis. It is filed as cell-based.

Calls of active or inactive are those of the source. The rule behind the calls is not given here.

Take `C=CCOc1ccccc1C[C@H]1C(=O)N(C)C(=O)c2nc3ccccc3c(=O)n21`: the inhibition in the series on RAW264.7 [1] was 59%; in the series on RAW264.7 [8], “Active; Reduction In Cellular P-Sapk/Jnk Level Was Almost Close To Untreated Control”; with RAW264.7 [10] it was 50%; in the series with RAW264.7 [13] it was “Active; Reduction In Cellular P-P38 Level Was Almost Close To Untreated Control”. In addition, the Activity in series [2] is on record as above 30%; in the series with RAW264.7 [3], “Non-toxic”. The inhibition result in the series with RAW264.7 [4], with RAW264.7 [5], in the series on RAW264.7 [7], in the series with RAW264.7 [14] and in the series on RAW264.7 [15] was “Active” in each case. Moreover, the inhibition at 2 µM came to 92.9% in the series with RAW264.7 [6], 54.5% in the series on RAW264.7 [11] and 25.6% in the series with RAW264.7 [12]. The IC50 in the series with RAW264.7 [9] is 500 nM.
